“Also recorded” adds a separate entry of the source. Numbered stars: 1 amine (or outer) side, 2 acyl side, 3 side chain; on linkers, the order of the positions; unused ones are H or OH. Bridge positions count the residues as written; N and C are the ends. Square brackets hold non-standard residues; d marks the D form. Peptide text beside a SMILES is read from it. I, II: the chains in the order shown. Gly(N-piperonyl) = O=C(O)CNCc1ccc2c(c1)OCO2; X1 = CC(CN(CC(=O)[*:2])[*:1])c1ccccc1; Nleu = CC(C)CNCC(=O)O; Nlys = NCCCCNCC(=O)O; Ahx = NCCCCCC(=O)O; Nme = COCCNCC(=O)O; βAla = NCCC(=O)O
Tests used:
[1] = biological target: T1, VEGFR2 (Homo sapiens, UniProt P35968); test: Fluorescence-based ELISA, VEGFR2 binding; settings: vs GU40C4 (ref 12)
T1 construct: purchased R&D Systems
Experimental: Wells were washed with 5 × 200 μL of PBS and fluorescence was measured at 520 nm using a plate reader (Fluostar Optima, BMG Laboratories, Durham, NC).

[2] = biological target: T2, VEGFR2 (PAE-KDR cells) (Homo sapiens, UniProt P35968); test: VEGFR2 autophosphorylation assay, PAE-KDR cells; type: cell-based
T2 construct: host or cells: PAE-KDR cells
Experimental: Experiments were conducted using PAE-KDR (Sibtech Inc., Brookfield, CT) and HUVEC (Sciencecell, Carlsbad, CA) cells. […] Cells were harvested with lysis buffer, and lysates were separated by SDS-PAGE and transferred to PVDF membranes. Membranes were probed with anti phospho-VEGF receptor 2 (Tyr1175, 19A10) or total anti-VEGFR2 primary antibodies (Cell Signaling Technology, Danvers, MA) and subsequently developed with appropriate HRP-conjugated secondary antibody (BioRad Laboratories, Hercules, CA) followed by enhanced chemiluminescent detection (Pierce).

[3] = system: Met-1 cells; settings: 2.5 μM GU81, 72 hours, serum-free DMEM, p < 0.05 vs SFM, 1-way ANOVA
Experimental: Tumor-conditioned media (TCM) was collected and RNA harvested using TRIzol (Invitrogen) according to the manufacturer's directions at 24, 48, and 72 hours post-treatment. The quality of RNA was evaluated using spectrophotometry. The cDNA used for subsequent PCR was made using iScript (Bio-Rad Laboratories). The expression of VEGF was analyzed by quantitative real-time PCR using assay on demand from Applied Biosystems (Mm00437308_m1). […] Quantitative real-time PCR was performed in a reaction volume of 20 μL of cDNA and each reaction was performed in triplicate. We used the comparative Ct method to compute relative expression values. TCM was diluted 1:5 prior to analysis for VEGF concentration using the Quantikine Mouse VEGF Immunoassay (R&D Systems).
Results are expressed as mean ± SEM.

[4] = system: HUVEC; settings: when compared to GU40C4
[5] = system: Met-1 cells; settings: GU81 treatment, mRNA and protein
[6] = system: MMTV-PyMT tumors; settings: cited from earlier work
Excerpt: Macrophage infiltration is associated with poor prognosis in a number of different tumor types, including breast cancer. […] This increase in macrophage infiltration is puzzling ...

[7] = system: MMTV-PyMT transgenic model of breast cancer; settings: cited from earlier work
[8] = system: 4T1 syngenic breast cancer model; settings: 4T1 syngeneic model; cited from earlier work
[9] = system: MMTV-PyMT tumors; test: Tumor VEGF immunohistochemistry; settings: percent VEGF positive area, vs control, p ≤ 0.05 for GU81 alone, t-test; 3 animals/group, 5 sections/animal
[10] = system: MMTV-PyMT tumors; test: H&E histology of MMTV-PyMT tumors; settings: formalin-fixed tumors after 19 days treatment
[11] = system: MMTV-PyMT tumors; test: F4/80 macrophage infiltration immunohistochemistry; settings: percent F4/80 positive area, p ≤ 0.05 vs control, t-test; 3 animals/group, 5 sections/animal
[12] = system: MMTV-PyMT tumors; test: Endomucin immunohistochemistry (vessel number, vascular area, vessel size)
[13] = system: MMTV-PyMT transgenic model of breast cancer; test: MMTV-PyMT breast cancer therapy study: tumor volume, tumor weight, efficacy; settings: for tumor volume vs control: MMTV-PyMT mice, 19 days from age 6 weeks, GU81 260 μg/day osmotic pump, doxorubicin 2 mg/kg once weekly, 2-way ANOVA; for total tumor weight vs control: at sacrifice (age 60 days), p ≤ 0.01 for combination, 1-way ANOVA
[14] = system: MMTV-PyMT tumors; test: Perilipin and adiponectin immunohistochemistry of MMTV-PyMT tumors (tumor fat content); settings: for tumor fat content (residual adipose tissue): MMTV-PyMT tumors after 19 days treatment, H&E and adipocyte markers
[15] = system: MMTV-PyMT tumors

T2 sequence (P35968 20-1356): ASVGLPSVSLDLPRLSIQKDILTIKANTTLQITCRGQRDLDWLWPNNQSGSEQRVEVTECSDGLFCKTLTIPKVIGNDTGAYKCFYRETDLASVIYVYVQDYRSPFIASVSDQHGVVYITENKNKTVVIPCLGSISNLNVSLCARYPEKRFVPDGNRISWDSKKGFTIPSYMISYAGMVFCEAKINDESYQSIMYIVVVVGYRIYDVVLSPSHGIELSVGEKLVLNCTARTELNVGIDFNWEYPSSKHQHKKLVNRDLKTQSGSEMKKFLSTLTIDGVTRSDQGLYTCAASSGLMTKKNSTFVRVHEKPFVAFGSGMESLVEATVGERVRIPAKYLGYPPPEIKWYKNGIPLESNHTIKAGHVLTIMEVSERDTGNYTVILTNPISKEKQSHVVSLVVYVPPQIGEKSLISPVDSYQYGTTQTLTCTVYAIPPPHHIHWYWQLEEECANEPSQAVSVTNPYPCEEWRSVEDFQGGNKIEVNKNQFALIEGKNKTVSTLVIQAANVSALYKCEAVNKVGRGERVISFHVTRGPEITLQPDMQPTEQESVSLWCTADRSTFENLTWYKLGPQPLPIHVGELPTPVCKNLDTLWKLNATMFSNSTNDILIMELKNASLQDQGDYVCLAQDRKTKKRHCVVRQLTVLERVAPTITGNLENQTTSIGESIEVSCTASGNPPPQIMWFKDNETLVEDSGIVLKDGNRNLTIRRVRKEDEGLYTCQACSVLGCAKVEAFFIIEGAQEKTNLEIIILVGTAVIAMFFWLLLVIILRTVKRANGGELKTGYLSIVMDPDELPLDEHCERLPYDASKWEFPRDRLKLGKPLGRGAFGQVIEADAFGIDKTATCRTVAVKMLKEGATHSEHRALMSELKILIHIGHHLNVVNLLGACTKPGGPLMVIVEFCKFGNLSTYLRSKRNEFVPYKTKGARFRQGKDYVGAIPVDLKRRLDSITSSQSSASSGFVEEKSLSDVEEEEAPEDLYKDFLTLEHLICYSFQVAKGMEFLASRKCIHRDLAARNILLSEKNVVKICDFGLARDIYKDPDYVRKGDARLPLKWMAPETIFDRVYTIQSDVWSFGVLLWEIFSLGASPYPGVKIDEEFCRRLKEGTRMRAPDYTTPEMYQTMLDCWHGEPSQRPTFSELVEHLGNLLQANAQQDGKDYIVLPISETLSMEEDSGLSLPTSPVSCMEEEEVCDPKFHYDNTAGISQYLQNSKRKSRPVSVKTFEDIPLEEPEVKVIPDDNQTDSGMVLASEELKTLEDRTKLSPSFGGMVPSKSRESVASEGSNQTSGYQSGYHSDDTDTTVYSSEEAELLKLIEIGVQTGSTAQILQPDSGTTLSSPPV
T1 sequence (P35968 20-1356): as above

COCCN(CC(=O)N(CC(=O)N(CC(=O)N(CCCCN)CC(=O)N(CC(=O)N(CCCCN)CC(=O)N(CCCCN)CC(=O)NCCCCCC(=O)NCCC(=O)N[C@@H](CCCCNC(=O)CN(CCCCN)C(=O)CN(CCCCN)C(=O)CN(CC(C)C)C(=O)CN(CCCCN)C(=O)CN(Cc1ccc2c(c1)OCO2)C(=O)CN(CC(C)c1ccccc1)C(=O)CN(CCOC)C(=O)CN(CC(C)C)C(=O)CNCCCCN)C(N)=O)CC(C)C)Cc1ccc2c(c1)OCO2)CC(C)c1ccccc1)C(=O)CN(CC(C)C)C(=O)CNCCCCN (stereo partly drawn) [GU81] (I: H-[Nlys][Nleu][Nme][X1][Gly(N-piperonyl)][Nlys][Nleu][Nlys][Nlys][Ahx][βAla]K-NH2 / II: H-[Nlys][Nleu][Nme][X1][Gly(N-piperonyl)][Nlys][Nleu][Nlys][Nlys]; amide I:12-II:C)
improvement of KD over the original GU40C4 [1]: 3 -fold | block of VEGF-induced VEGFR2 phosphorylation ([2]; PAE-KDR cells, increasing concentrations of GU81 15 min, VEGF 1.3 nM 7 min, 37°C, Western blot): effectively blocks VEGF-induced VEGFR2 phosphorylation of PAE-KDR cells in a dose-dependent manner | in vitro efficacy ([2]; abstract: compared to GU40C4, discussion: in vitro biological efficacy): increased in vitro efficacy compared to GU40C4; also recorded: potent in vitro biological efficacy | VEGF mRNA level in Met-1 cells [3]: significantly increased after 72 hours of GU81 treatment; also recorded: significant increase in VEGF gene transcription following 72 hrs of GU81 treatment | expected inhibition of endothelial cell proliferation [4]: more potent inhibitor of endothelial cell proliferation when compared to GU40C4 | VEGF expression in Met-1 cells (discussion) [5]: increased VEGF expression following treatment with GU81 | macrophage infiltration, single agent [6]: increases macrophage infiltration as a single-agent | in vivo efficacy as a single agent, MMTV-PyMT model [7]: does not demonstrate in vivo efficacy as a single agent in the MMTV-PyMT model of breast cancer | tumor size, 4T1 model, single agent [8]: effectively reduces tumor size and MVD | tumor VEGF level [9]: increased tumor-VEGF levels and macrophage infiltration; also recorded: significantly increased levels of VEGF compared to tumors from control-treated mice; also recorded: increased tumor VEGF expression in this model | tumor histology / progression / invasion [10]: no effect on tumor weight, histology, tumor fat content, or tumor growth index; also recorded: did not alter this histology | tumor histology / progression / invasion ([10]; listed as GUI81): clearly invasive adenocarcinomas | macrophage infiltration vs control [11]: increased tumor-VEGF levels and macrophage infiltration; also recorded: significantly increased following treatment with GU81; also recorded: induces macrophage infiltration in vivo | total vessel number ([12]; endomucin, vessels per 200× field, 3 animals/group, 5 sections/animal): no effect on total vessel number; also recorded: do not see a decrease in vessel number | total vascular area, GU81 alone ([12]; percent endomucin positive area per 200× field, vs control, p < 0.001, t-test): able to significantly to reduce total vascular area as a single agent; also recorded: decreased total vascular area; also recorded: reduces total vascular area and vessel size; also recorded: decrease in total vascular area and vessel size | vessel size ([12]; percent fluorescent area divided by total vessel number, vs control, t-test): reduces total vascular area and vessel size; also recorded: decrease in total vascular area and vessel size | therapeutic efficacy in MMTV-PyMT model ([13]; GU81 260 μg/day alone or with doxorubicin 2 mg/kg once weekly, 19 days): little therapeutic efficacy when used alone; also recorded: not effective as a single agent in the MMTV-PyMT model of breast cancer | tumor volume vs control [13]: did not have a significant effect on either tumor volume or tumor weight | total tumor weight vs control [13]: no effect on tumor weight, histology, tumor fat content, or tumor growth index; also recorded: did not have a significant effect on either tumor volume or tumor weight | tumor fat content (residual adipose tissue) [14]: no effect on tumor weight, histology, tumor fat content, or tumor growth index

COc1cccc2c1C(=O)c1c(O)c3c(c(O)c1C2=O)C[C@@](O)(C(=O)CO)C[C@@H]3O[C@H]1C[C@H](N)[C@H](O)[C@H](C)O1 [doxorubicin, reference compound]
cytostatic / cytocidal character of the therapy ([15]; from proliferation, apoptosis and growth index): cytostatic | tumor growth index vs control ([15]; phospho-histone-3 / cleaved caspase-3 positive cells per 200× field, vs control, p ≤ 0.05 for combination, 1-way ANOVA): no effect on tumor weight, histology, tumor fat content, or tumor growth index | phospho-histone-3 positive cells (proliferation) vs control ([15]; vs control, p ≤ 0.01 (doxorubicin, combination), 1-way ANOVA, 3 animals/group, 5 sections/animal): fewer phospho-histone-3 positive cells when compared to tumors from control treated animals | cleaved (active) caspase-3 positive cells (apoptosis) vs control ([15]; vs control, p ≤ 0.05 (doxorubicin), 1-way ANOVA, 3 animals/group, 5 sections/animal): significantly fewer active caspase-3 positive cells when compared to tumors from control-treated animals | tumor VEGF level [9]: neither treatment with doxorubicin alone or in combination with GU81 had significant effects on VEGF expression | tumor histology / progression / invasion [10]: no effect on tumor weight, histology, tumor fat content, or tumor growth index; also recorded: displayed areas of invasive carcinoma; although the invasive component of the tumor was reduced when compared to control and GU81-treated animals; also recorded: clearly invasive adenocarcinomas | tumor volume vs control [13]: significantly reduced tumor volume compared to control treated animals | total tumor weight vs control [13]: no effect on tumor weight, histology, tumor fat content, or tumor growth index | adiponectin staining vs control ([14]; Cy3 positive area, vs control, p≤0.05, t-test): significantly increased | tumor fat content (residual adipose tissue) [14]: no effect on tumor weight, histology, tumor fat content, or tumor growth index

From paper PMC2920882 (BMC Cancer, 2010)
